Data from the NIST ThermoML archive (doi:10.1016/j.tca.2017.02.014).
Several values for one entry are separate records, joined by “and”; a condition that tells them apart may be missing. Identical values can stand only once. ± gives the expanded uncertainty stated by the source.

Columns and labels:
[1] = Molar enthalpy of transition or fusion; conditions: Crystal; DSC
[2] = Crystal; DTA

| Compound | Molar enthalpy of transition or fusion [1] | Normal melting temperature [2] |
| --- | --- | --- |
| NC(=O)c1cccnc1 [3-pyridinecarboxamide] | 5.88 ± 0.263 kcal/mol | 128.00 ± 0.5 °C and 127.50 ± 0.5 °C |
| CC(C(=O)O)c1cccc(C(=O)c2ccccc2)c1 (centres undefined) [ketoprofen] | 7.29 ± 0.287 kcal/mol | 94.20 ± 0.5 °C and 93.50 ± 0.5 °C |
